Reference: US5057512A, “3-amino-2-oxo-azetidine-1-sulfonic acids” (Uclaf; Roussel, priority 1981, dated 1991)

Legend:
Assay in all cases: M.I.C., dilutions in liquid medium
Assay type in all cases: cell-based
Providencia Du 48 = conditions: 37° C.; for MIC: Providencia, DU48
Experimental: (§1) A. Activity in Vitro-Method of Dilutions in Liquid Medium
(§2) A series of tubes was prepared in which the same amount of sterile nutritive medium was distributed and there was distributed in each tube increasing amounts of the test product. Then, each tube was inoculated with a bacterial strain and after incubation for twenty-four or forty-eight hours in an oven at 37° C., the inhibition of the growth was evaluated by trans-illumination to determine the minimum inhibiting concentrations (M.I.C.), expressed in μg/ml.

Escherichia coli DC 2 = conditions: 37° C.; for MIC: Escherichia coli, DC2
Experimental: as §1, §2

Escherichia coli UC 1894 = conditions: 37° C.; for MIC: Escherichia coli, UC1894
Experimental: as §1, §2

[1] = test system: Enterobacter cloacae 1321 E; conditions: 37° C.; for MIC: Enterobacter cloacae, 1321E
Experimental: as §1, §2

[2] = test system: Klebsiella aerogenes 1082 E; conditions: 37° C.; for MIC: Klebsiella aerogenes, 1082E
Experimental: as §1, §2

[3] = test system: Klebsiella Pneumoniae Exp. 52145; conditions: 37° C.; for M.I.C.: 24 Hr.; for MIC: Klebsiella pneumoniae
Experimental: as §1, §2

[4] = test system: Salmonella typhimurium MZ 11; conditions: 37° C.; for MIC: Salmonella enterica, TYPHIMURIUM
Experimental: as §1, §2

[5] = test system: Proteus vulgaris (indol +) A 232; conditions: 37° C.; for MIC: Proteus vulgaris
Experimental: as §1, §2

[6] = test system: Proteus mirabilis (indol -) A 235; conditions: 37° C.; for MIC: Proteus mirabilis
Experimental: as §1, §2

Escherichia coli 0 78 = conditions: 37° C.
Experimental: as §1, §2

[7] = test system: Serratia Resistant to Gentamycine 2 532; conditions: 37° C.; for M.I.C.: 24 Hr.; for MIC: Serratia
Experimental: as §1, §2

Escherichia coli 1507 E = conditions: 37° C.; for MIC: Escherichia coli, 1507E
Experimental: as §1, §2

[8] = test system: Pseudomonas aeruginosa 1771 m; conditions: 37° C.; for MIC: Pseudomonas aeruginosa, 1771M
Experimental: as §1, §2

Escherichia coli DC 0 = conditions: 37° C.; for MIC: Escherichia coli
Experimental: as §1, §2

Escherichia coli T E M = conditions: 37° C.; for MIC: Escherichia coli
Experimental: as §1, §2

[9] = test system: Klebsiella aerogenes 1522 E; conditions: 37° C.; for MIC: Klebsiella aerogenes, 1522E
Experimental: as §1, §2

[10] = Escherichia coli, 078, 24 h, 24 H
[11] = Escherichia coli, 078, 48 h, 48 H

CON=C(C(=O)NC1C(=O)N(S(=O)(=O)O)C1CF)c1csc(N)n1 (mixture of isomers) [Example 5, Racemate of syn isomer of cis 4-fluoromethyl-3-[2-(2-amino-4-thiazolyl)-2-methoxyimino-acetamido]-2-oxo-azetidine-1-sulfonic acid]
MIC (Providencia Du 48; 24 Hr.): 0.3 µg/mL | MIC (Providencia Du 48; 48 Hr.): 0.3 µg/mL | MIC (Escherichia coli DC 2; 24 H): 0.15 µg/mL | MIC (Escherichia coli DC 2; 48 H): 0.3 µg/mL | MIC (Escherichia coli UC 1894; 24 H): ≤ 0.04 µg/mL | MIC (Escherichia coli UC 1894; 48 H): ≤ 0.04 µg/mL | MIC ([1]; 24 H): 0.08 µg/mL | MIC ([1]; 48 H): 0.08 µg/mL | MIC ([2]; 24 h): 5 µg/mL | MIC ([2]; 48 h): 5 µg/mL | M.I.C. [3]: 0.3 µg/mL | MIC ([3]; 48 h): 0.3 µg/mL | MIC ([4]; 24 h): 0.08 µg/mL | MIC ([4]; 48 h): 0.08 µg/mL | MIC ([5]; 24 Hr.): ≤ 0.04 µg/mL | MIC ([5]; 48 Hr.): ≤ 0.04 µg/mL | MIC ([6]; 24 h): 0.08 µg/mL | MIC ([6]; 48 h): 0.08 µg/mL | MIC (Escherichia coli 0 78; [10]): 0.15 µg/mL | MIC (Escherichia coli 0 78; [11]): 0.15 µg/mL | M.I.C. [7]: 0.06 µg/mL | MIC ([7]; 48 h): 1.2 µg/mL | MIC (Escherichia coli 1507 E; 24 h): 0.15 µg/mL | MIC (Escherichia coli 1507 E; 48 h): 0.15 µg/mL | MIC ([8]; 24 H): 0.6 µg/mL | MIC ([8]; 48 H): 1.2 µg/mL | MIC (Escherichia coli DC 0; DC0, 24 h, 24 H): 0.3 µg/mL | MIC (Escherichia coli DC 0; DC0, 48 h, 48 H): 0.3 µg/mL | MIC (Escherichia coli T E M; 24 h): 0.15 µg/mL | MIC (Escherichia coli T E M; 48 h): 0.15 µg/mL | MIC ([9]; 24 h): 0.15 µg/mL | MIC ([9]; 48 h): 0.15 µg/mL

CC(C)(ON=C(C(=O)NC1C(=O)N(S(=O)(=O)O)C1CF)c1csc(N)n1)C(=O)O (mixture of isomers) [Example 6, Racemate of syn isomer of cis 4-fluoromethyl-3-[2-(2-amino-4-thiazolyl)-2-(1-carboxy-1-methyl-ethoxy)-imino-acetamido]-2-oxo-azetidine-1-sulfonic acid]
MIC (Providencia Du 48; 24 Hr.): 0.15 µg/mL | MIC (Providencia Du 48; 48 Hr.): 0.15 µg/mL | MIC (Escherichia coli DC 2; 24 H): 0.3 µg/mL | MIC (Escherichia coli DC 2; 48 H): 0.3 µg/mL | MIC (Escherichia coli UC 1894; 24 H): 0.08 µg/mL | MIC (Escherichia coli UC 1894; 48 H): 0.08 µg/mL | MIC ([1]; 24 H): 0.3 µg/mL | MIC ([1]; 48 H): 0.3 µg/mL | MIC ([2]; 24 h): 0.6 µg/mL | MIC ([2]; 48 h): 0.6 µg/mL | MIC ([3]; 24 h): 0.6 µg/mL | MIC ([3]; 48 h): 0.6 µg/mL | MIC ([4]; 24 h): 0.6 µg/mL | MIC ([4]; 48 h): 0.6 µg/mL | MIC ([5]; 24 Hr.): ≤ 0.04 µg/mL | MIC ([5]; 48 Hr.): ≤ 0.04 µg/mL | MIC ([6]; 24 h): ≤ 0.04 µg/mL | MIC ([6]; 48 h): ≤ 0.04 µg/mL | MIC (Escherichia coli 0 78; [10]): 0.3 µg/mL | MIC (Escherichia coli 0 78; [11]): 0.3 µg/mL | MIC ([7]; 24 h): 0.3 µg/mL | MIC ([7]; 48 h): 0.3 µg/mL | MIC (Escherichia coli 1507 E; 24 h): 0.6 µg/mL | MIC (Escherichia coli 1507 E; 48 h): 0.6 µg/mL | MIC ([8]; 24 H): 0.3 µg/mL | MIC ([8]; 48 H): 0.6 µg/mL | MIC (Escherichia coli DC 0; DC0, 24 h, 24 H): 0.6 µg/mL | MIC (Escherichia coli DC 0; DC0, 48 h, 48 H): 0.6 µg/mL | MIC (Escherichia coli T E M; 24 h): 0.6 µg/mL | MIC (Escherichia coli T E M; 48 h): 0.6 µg/mL | MIC ([9]; 24 h): 0.3 µg/mL | MIC ([9]; 48 h): 0.3 µg/mL

Nc1nc(C(=NOC(F)F)C(=O)NC2C(=O)N(S(=O)(=O)O)C2CF)cs1 (mixture of isomers) [Example 8, Racemate of the syn isomer of cis 4-fluoromethyl-3-[2-(2-amino-4-thiazolyl)-2-difluoromethoxyimino-acetamido]-2-oxo-azetidine-1-sulfonic acid]
MIC (Providencia Du 48; 24 Hr.): 0.3 µg/mL | MIC (Providencia Du 48; 48 Hr.): 0.3 µg/mL | MIC (Escherichia coli DC 2; 24 H): ≤ 0.04 µg/mL | MIC (Escherichia coli DC 2; 48 H): ≤ 0.04 µg/mL | MIC (Escherichia coli UC 1894; 24 H): ≤ 0.04 µg/mL | MIC (Escherichia coli UC 1894; 48 H): ≤ 0.08 µg/mL | MIC ([1]; 24 H): 0.08 µg/mL | MIC ([1]; 48 H): 0.08 µg/mL | MIC ([3]; 24 h): 0.3 µg/mL | MIC ([3]; 48 h): 0.3 µg/mL | MIC ([4]; 24 h): 0.08 µg/mL | MIC ([4]; 48 h): 0.08 µg/mL | MIC ([5]; 24 Hr.): ≤ 0.04 µg/mL | MIC ([5]; 48 Hr.): ≤ 0.04 µg/mL | MIC ([6]; 24 h): ≤ 0.04 µg/mL | MIC ([6]; 48 h): ≤ 0.04 µg/mL | MIC (Escherichia coli 0 78; [10]): 0.08 µg/mL | MIC (Escherichia coli 0 78; [11]): 0.08 µg/mL | MIC ([7]; 24 h): 0.6 µg/mL | MIC ([7]; 48 h): 0.6 µg/mL | MIC (Escherichia coli 1507 E; 24 h): ≤ 0.04 µg/mL | MIC (Escherichia coli 1507 E; 48 h): ≤ 0.04 µg/mL | MIC (Escherichia coli DC 0; DC0, 24 h, 24 H): 0.08 µg/mL | MIC (Escherichia coli DC 0; DC0, 48 h, 48 H): 0.08 µg/mL | MIC (Escherichia coli T E M; 24 h): 0.15 µg/mL | MIC (Escherichia coli T E M; 48 h): 0.15 µg/mL | MIC ([9]; 24 h): 0.08 µg/mL | MIC ([9]; 48 h): 0.08 µg/mL

CON=C(C(=O)NC1C(=O)N(S(=O)(=O)O)C1CF)c1csc(N)n1 [Example 11, (3S,4S)ΔZ 4-fluoromethyl-3-[2-(2-amino-4-thiazolyl)-2-methoxyimino-acetamido]-2-oxo-azetidine-1-sulfonic acid]
M.I.C. (Providencia Du 48; 24 Hr.): 0.3 µg/mL | M.I.C. (Escherichia coli DC 2; 24 H): 0.15 µg/mL | M.I.C. (Escherichia coli UC 1894; 24 H): ≤ 0.04 µg/mL | M.I.C. ([1]; 24 H): 0.08 µg/mL | M.I.C. ([2]; 24 H): 10 µg/mL | M.I.C. [3]: 0.08 µg/mL | M.I.C. ([4]; 24 H): ≤ 0.04 µg/mL | M.I.C. ([5]; 24 Hr.): ≤ 0.04 µg/mL | M.I.C. ([6]; 24 Hr.): 0.15 µg/mL | M.I.C. (Escherichia coli 0 78; 24 H): 0.08 µg/mL | M.I.C. [7]: 2.5 µg/mL | M.I.C. (Escherichia coli 1507 E; 24 H): 0.08 µg/mL | M.I.C. ([8]; 24 H): 0.6 µg/mL | M.I.C. (Escherichia coli DC 0; 24 H): 0.15 µg/mL | M.I.C. (Escherichia coli T E M; 24 H): 0.08 µg/mL | M.I.C. ([9]; 24 H): 0.08 µg/mL
